Experiments:
Assay type in all cases: in vivo
[1] = tested on: pigweed (Amaranthus retroflexus); assay: Test A preemergence, visual plant response rating; details: for Pigweed plant response rating: 125 g ai/ha, preemergence, 0 to 100 scale, 0 no effect, 100 complete control; for Pigweed plant response rating (0 to 100 scale): 500 g ai/ha Preemergence, approx. 10 days
Summary of the method: (§1)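 Ratings use a 0–100 visual scale (100 = complete control) against untreated controls, scored about 10 days after greenhouse treatment. Test chemicals were formulated in surfactant-containing non-phytotoxic solvent and applied either as soil spray after planting (preemergence) or onto one- to two-leaf, 2–10 cm plants (postemergence).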

[2] = tested on: kochia (Kochia scoparia); assay: Test A preemergence, visual plant response rating; details: for Kochia plant response rating: 125 g ai/ha, preemergence, 0 to 100 scale, 0 no effect, 100 complete control; for Kochia plant response rating (0 to 100 scale): 500 g ai/ha Preemergence, approx. 10 days
Summary of the method: as §1

[3] = tested on: foxtail, giant (giant foxtail, Setaria faberii); assay: Test A preemergence, visual plant response rating; details: for Foxtail, Giant plant response rating: 125 g ai/ha, preemergence, 0 to 100 scale, 0 no effect, 100 complete control; for Foxtail, Giant plant response rating (0 to 100 scale): 500 g ai/ha Preemergence, approx. 10 days
Summary of the method: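 Formulated in a non-phytotoxic solvent mixture including surfactant, each test chemical was sprayed onto the soil surface after sowing, or onto seedlings 2 to 10 cm high. Roughly 10 days later, plants were compared with untreated controls and rated for injury from 0 (no effect) to 100 (complete control).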

[4] = tested on: ragweed (common ragweed, Ambrosia elatior); assay: Test A preemergence, visual plant response rating; details: for Ragweed plant response rating: 125 g ai/ha, preemergence, 0 to 100 scale, 0 no effect, 100 complete control; for Ragweed plant response rating (0 to 100 scale): 500 g ai/ha Preemergence, approx. 10 days
Summary of the method: as §1

[5] = tested on: barnyardgrass (Echinochloa crus-galli); assay: Test A preemergence, visual plant response rating; details: for Barnyardgrass plant response rating: 125 g ai/ha, preemergence, 0 to 100 scale, 0 no effect, 100 complete control; for Barnyardgrass plant response rating (0 to 100 scale): 500 g ai/ha Preemergence, approx. 10 days
Summary of the method: as §1

[6] = tested on: Italian ryegrass (Lolium multiflorum); assay: Test A preemergence, visual plant response rating; details: for Ryegrass, Italian plant response rating: 125 g ai/ha, preemergence, 0 to 100 scale, 0 no effect, 100 complete control; for Ryegrass, Italian plant response rating (0 to 100 scale): 500 g ai/ha Preemergence, approx. 10 days
Summary of the method: as §1

[7] = tested on: pigweed (Amaranthus retroflexus); assay: Test A postemergence, visual plant response rating; details: for Pigweed plant response rating (0 to 100 scale): 500 g ai/ha, postemergence, 0 is no effect, 100 is complete control; for Pigweed plant response rating: Postemergence, 125 g ai/ha, 0 to 100 scale (0 no effect, 100 complete control)
Summary of the method: as §1

[8] = tested on: kochia (Kochia scoparia); assay: Test A postemergence, visual plant response rating; details: for Kochia plant response rating (0 to 100 scale): 500 g ai/ha, postemergence, 0 is no effect, 100 is complete control; for Kochia plant response rating: Postemergence, 125 g ai/ha, 0 to 100 scale (0 no effect, 100 complete control)
Summary of the method: as §1

[9] = tested on: foxtail, giant (giant foxtail, Setaria faberii); assay: Test A postemergence, visual plant response rating; details: for Foxtail, Giant plant response rating (0 to 100 scale): 500 g ai/ha, postemergence, 0 is no effect, 100 is complete control; for Foxtail, Giant plant response rating: Postemergence, 125 g ai/ha, 0 to 100 scale (0 no effect, 100 complete control)
Summary of the method: as §1

[10] = tested on: wheat (Triticum aestivum); assay: Test A postemergence, visual plant response rating; details: for Wheat plant response rating (0 to 100 scale): 500 g ai/ha, postemergence, 0 is no effect, 100 is complete control; for Wheat plant response rating: Postemergence, 125 g ai/ha, 0 to 100 scale (0 no effect, 100 complete control)
Summary of the method: as §1

[11] = tested on: ragweed (common ragweed, Ambrosia elatior); assay: Test A postemergence, visual plant response rating; details: for Ragweed plant response rating (0 to 100 scale): 500 g ai/ha, postemergence, 0 is no effect, 100 is complete control; for Ragweed plant response rating: Postemergence, 125 g ai/ha, 0 to 100 scale (0 no effect, 100 complete control)
Summary of the method: as §1

[12] = tested on: corn (Zea mays); assay: Test A postemergence, visual plant response rating; details: for Corn plant response rating (0 to 100 scale): 500 g ai/ha, postemergence, 0 is no effect, 100 is complete control; for Corn plant response rating: Postemergence, 125 g ai/ha, 0 to 100 scale (0 no effect, 100 complete control)
Summary of the method: as §1

[13] = tested on: galium (catchweed bedstraw, Galium aparine); assay: Test A postemergence, visual plant response rating; details: for Galium plant response rating (0 to 100 scale): 500 g ai/ha, postemergence, 0 is no effect, 100 is complete control; for Galium plant response rating: Postemergence, 125 g ai/ha, 0 to 100 scale (0 no effect, 100 complete control)
Summary of the method: as §1

[14] = tested on: blackgrass (Alopecurus myosuroides); assay: Test A postemergence, visual plant response rating; details: for Blackgrass plant response rating (0 to 100 scale): 500 g ai/ha, postemergence, 0 is no effect, 100 is complete control; for Blackgrass plant response rating: Postemergence, 125 g ai/ha, 0 to 100 scale (0 no effect, 100 complete control)
Summary of the method: as §1

[15] = tested on: barnyardgrass (Echinochloa crus-galli); assay: Test A postemergence, visual plant response rating; details: for Barnyardgrass plant response rating (0 to 100 scale): 500 g ai/ha, postemergence, 0 is no effect, 100 is complete control; for Barnyardgrass plant response rating: Postemergence, 125 g ai/ha, 0 to 100 scale (0 no effect, 100 complete control)
Summary of the method: as §1

[16] = tested on: Italian ryegrass (Lolium multiflorum); assay: Test A postemergence, visual plant response rating; details: for Ryegrass, Italian plant response rating (0 to 100 scale): 500 g ai/ha, postemergence, 0 is no effect, 100 is complete control; for Ryegrass, Italian plant response rating: Postemergence, 125 g ai/ha, 0 to 100 scale (0 no effect, 100 complete control)
Summary of the method: as §1

[17] = tested on: rice (Oryza sativa); assay: Test B flooded paddy test, visual plant response rating; details: 250 g ai/ha, Flood, applied to paddy water, 2-leaf stage, evaluated after 13 to 15 days
Summary of the method: (§2)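 Compounds added straight into paddy water of pots flooded to 3 cm, with 2-leaf-stage plants of the four species; water level held throughout.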

[18] = tested on: ducksalad (Heteranhera limosa); assay: as above; details: 250 g ai/ha, Flood, applied to paddy water, 2-leaf stage, evaluated after 13 to 15 days
Summary of the method: as §2

[19] = tested on: barnyardgrass (Echinochloa crus-galli); assay: as above; details: 250 g ai/ha, Flood, applied to paddy water, 2-leaf stage, evaluated after 13 to 15 days
Summary of the method: as §2

[20] = tested on: sedge, umbrella (small-flower umbrella sedge, Cyperus difformis); assay: as above; details: 250 g ai/ha, Flood, applied to paddy water, 2-leaf stage, evaluated after 13 to 15 days
Summary of the method: as §2

## CON=C(c1cccc(F)c1)c1c(O)c(C)nn(C)c1=O [Compound 64]
[1]
  Pigweed plant response rating: 0
  Pigweed plant response rating (0 to 100 scale): 10
[2]
  Kochia plant response rating: 0
  Kochia plant response rating (0 to 100 scale): 0
[3]
  Foxtail, Giant plant response rating: 0
  Foxtail, Giant plant response rating (0 to 100 scale): 0
[4]
  Ragweed plant response rating: 10
  Ragweed plant response rating (0 to 100 scale): 20
[5]
  Barnyardgrass plant response rating: 0
  Barnyardgrass plant response rating (0 to 100 scale): 0
[6]
  Ryegrass, Italian plant response rating: 30
  Ryegrass, Italian plant response rating (0 to 100 scale): 60
[7]
  Pigweed plant response rating (0 to 100 scale): 40
  Pigweed plant response rating: 20
[8]
  Kochia plant response rating (0 to 100 scale): 60
  Kochia plant response rating: 20
[9]
  Foxtail, Giant plant response rating (0 to 100 scale): 10
  Foxtail, Giant plant response rating: 0
[10]
  Wheat plant response rating (0 to 100 scale): 0
  Wheat plant response rating: 0
[11]
  Ragweed plant response rating (0 to 100 scale): 50
  Ragweed plant response rating: 20
[12]
  Corn plant response rating (0 to 100 scale): 0
  Corn plant response rating: 0
[13]
  Galium plant response rating (0 to 100 scale): 80
  Galium plant response rating: 70
[14]
  Blackgrass plant response rating (0 to 100 scale): 20
  Blackgrass plant response rating: 0
[15]
  Barnyardgrass plant response rating (0 to 100 scale): 20
  Barnyardgrass plant response rating: 20
[16]
  Ryegrass, Italian plant response rating (0 to 100 scale): 70
  Ryegrass, Italian plant response rating: 50
[17]
  Plant response rating, Rice (0 to 100 scale, 0 is no effect, 100 is complete control): 0
[18]
  Plant response rating, Ducksalad (0 to 100 scale, 0 is no effect, 100 is complete control): 0
[19]
  Plant response rating, Barnyardgrass (0 to 100 scale, 0 is no effect, 100 is complete control): 0
[20]
  Plant response rating, Sedge, Umbrella (0 to 100 scale, 0 is no effect, 100 is complete control): 0

## CO/N=C(\c1csc(C)c1)c1c(O)c(C)nn(C)c1=O [Compound 44]
[1]
  Pigweed plant response rating: 0
  Pigweed plant response rating (0 to 100 scale): 0
[2]
  Kochia plant response rating: 0
  Kochia plant response rating (0 to 100 scale): 0
[3]
  Foxtail, Giant plant response rating: 0
  Foxtail, Giant plant response rating (0 to 100 scale): 10
[4]
  Ragweed plant response rating: 0
  Ragweed plant response rating (0 to 100 scale): 0
[5]
  Barnyardgrass plant response rating: 0
  Barnyardgrass plant response rating (0 to 100 scale): 10
[6]
  Ryegrass, Italian plant response rating: 0
  Ryegrass, Italian plant response rating (0 to 100 scale): 50
[7]
  Pigweed plant response rating (0 to 100 scale): 10
  Pigweed plant response rating: 10
[8]
  Kochia plant response rating (0 to 100 scale): 0
  Kochia plant response rating: 0
[9]
  Foxtail, Giant plant response rating (0 to 100 scale): 50
  Foxtail, Giant plant response rating: 0
[10]
  Wheat plant response rating (0 to 100 scale): 0
  Wheat plant response rating: 0
[11]
  Ragweed plant response rating (0 to 100 scale): 40
  Ragweed plant response rating: 0
[12]
  Corn plant response rating (0 to 100 scale): 20
  Corn plant response rating: 0
[13]
  Galium plant response rating (0 to 100 scale): 50
  Galium plant response rating: 20
[14]
  Blackgrass plant response rating (0 to 100 scale): 30
  Blackgrass plant response rating: 0
[15]
  Barnyardgrass plant response rating (0 to 100 scale): 30
  Barnyardgrass plant response rating: 0
[16]
  Ryegrass, Italian plant response rating (0 to 100 scale): 0
  Ryegrass, Italian plant response rating: 20
[17]
  Plant response rating, Rice (0 to 100 scale, 0 is no effect, 100 is complete control): 0
[18]
  Plant response rating, Ducksalad (0 to 100 scale, 0 is no effect, 100 is complete control): 0
[19]
  Plant response rating, Barnyardgrass (0 to 100 scale, 0 is no effect, 100 is complete control): 0
[20]
  Plant response rating, Sedge, Umbrella (0 to 100 scale, 0 is no effect, 100 is complete control): 0

## CCO/N=C(/c1c(O)c(C)nn(C)c1=O)c1ccc(F)c2ccccc12 [Compound 84]
[1]
  Pigweed plant response rating: 100
  Pigweed plant response rating (0 to 100 scale): 100
[2]
  Kochia plant response rating: 20
  Kochia plant response rating (0 to 100 scale): 60
[3]
  Foxtail, Giant plant response rating: 100
  Foxtail, Giant plant response rating (0 to 100 scale): 100
[4]
  Ragweed plant response rating: 80
  Ragweed plant response rating (0 to 100 scale): 100
[5]
  Barnyardgrass plant response rating: 60
  Barnyardgrass plant response rating (0 to 100 scale): 100
[6]
  Ryegrass, Italian plant response rating: 100
  Ryegrass, Italian plant response rating (0 to 100 scale): 100
[7]
  Pigweed plant response rating (0 to 100 scale): 90
  Pigweed plant response rating: 80
[8]
  Kochia plant response rating (0 to 100 scale): 80
  Kochia plant response rating: 70
[9]
  Foxtail, Giant plant response rating (0 to 100 scale): 80
  Foxtail, Giant plant response rating: 70
[10]
  Wheat plant response rating (0 to 100 scale): 50
  Wheat plant response rating: 40
[11]
  Ragweed plant response rating (0 to 100 scale): 100
  Ragweed plant response rating: 90
[12]
  Corn plant response rating (0 to 100 scale): 30
  Corn plant response rating: 20
[13]
  Galium plant response rating (0 to 100 scale): 100
  Galium plant response rating: 90
[14]
  Blackgrass plant response rating (0 to 100 scale): 100
  Blackgrass plant response rating: 90
[15]
  Barnyardgrass plant response rating (0 to 100 scale): 80
  Barnyardgrass plant response rating: 60
[16]
  Ryegrass, Italian plant response rating (0 to 100 scale): 100
  Ryegrass, Italian plant response rating: 90
[17]
  Plant response rating, Rice (0 to 100 scale, 0 is no effect, 100 is complete control): 0
[18]
  Plant response rating, Ducksalad (0 to 100 scale, 0 is no effect, 100 is complete control): 0
[19]
  Plant response rating, Barnyardgrass (0 to 100 scale, 0 is no effect, 100 is complete control): 0
[20]
  Plant response rating, Sedge, Umbrella (0 to 100 scale, 0 is no effect, 100 is complete control): 0
